The source made the active and inactive calls. The calls are words filed in the database; no cut-off is given here.
Experiments:
CHO-AA8 [1] = assay: Effect on cell cycle progression in Chinese hamster AA8 cells assessed as accumulation at G2 phase at 140 nM; type: functional, cell-based; conditions: Cricetulus griseus
[2] = Induction of chromosome damage in BRCA2 deficient Chinese hamster V-C8 cells assessed as number of radials per 100 metaphases at 10 nM for 1 hr followed by post incubation in drug-free media for 24 hrs; type: functional, Cricetulus griseus
[3] = Cytotoxicity in homologous recombination repair BRCA2 gene deficient Chinese hamster V-C8 cells assessed as cell viability by MTT assay relative to wild type cells; type: functional, Cricetulus griseus
Lymphocyte = assay: Induction of DNA double strand breaks in nonproliferating human lymphocytes at 100 nM by alkaline comet assay; type: functional, cell-based
[4] = Induction of chromosome damage in BRCA2 deficient Chinese hamster V-C8 cells assessed as number of damaged chromosomes per 100 metaphases at 1 nM for 1 hr followed by post incubation in drug-free media for 24 hrs; type: functional, Cricetulus griseus
CCRF-CEM [5] = assay: Induction of DNA double strand breaks in human CEM cells assessed as phosphorylated histone H2AX formation after 1 hr by immunostaining; type: functional, cell-based
[6] = Induction of chromosome damage in BRCA2 deficient Chinese hamster V-C8 cells assessed as number of damaged chromosomes per 100 metaphases at 2 nM for 1 hr followed by post incubation in drug-free media for 24 hrs; type: functional, Cricetulus griseus
HeLa [7] = assay: Reduction of DNA synthesis in human HeLa cells at 30 nM after 1 hrs […]; type: functional; design: scale not given: the % may be the effect or the level left
[8] = Induction of chromosome damage in BRCA2 deficient Chinese hamster V-C8 cells assessed as number of radials per 100 metaphases at 5 nM for 1 hr followed by post incubation in drug-free media for 24 hrs; type: functional, Cricetulus griseus
HeLa [9] = assay: Reduction of cellular viability in human HeLa cells at 20 nM after 1 hr by MTT assay; type: functional
V79 [10] = assay: Induction of chromosome damage in Chinese hamster V79 cells assessed as number of radials per 100 metaphases at 100 nM for 1 hr followed by post incubation in drug-free media for 24 hrs; type: functional, Cricetulus griseus
[11] = Cytotoxicity in homologous recombination repair RAD51C gene deficient Chinese hamster CL-V4B cells assessed as cell viability by MTT assay relative to wild type cells; type: functional, Cricetulus griseus
HeLa [12] = assay: Reversal of induction of DNA double strand breaks in human HeLa cells at >50 nM in presence of aphidicolin after 1 hr by neutral comet assay; type: functional, cell-based
[13] = Effect on cell cycle distribution in Chinese hamster homologous recombination repair XRCC3 gene deficient irs1SF cells after 1 hr followed by post incubation in drug-free media; type: functional, Cricetulus griseus
CHO-AA8 [14] = assay: Induction of DNA double strand breaks in Chinese hamster AA8 cells assessed as phosphorylated histone H2AX formation after 1 hr by immunostaining; type: functional, cell-based; conditions: Cricetulus griseus
CHO-AA8 [15] = assay: Effect on cell cycle distribution in Chinese hamster AA8 cells assessed as isotoxic dose after 1 hr; type: functional, Cricetulus griseus
CHO-AA8 [16] = assay: Induction of DNA double strand breaks in Chinese hamster AA8 cells at 100 nM after 1 hr by comet assay; type: functional, Cricetulus griseus
V79 [17] = assay: Induction of chromosome damage in Chinese hamster V79 cells assessed as number of damaged chromosomes per 100 metaphases at 10 nM for 1 hr followed by post incubation in drug-free media for 24 hrs; type: functional, Cricetulus griseus
HeLa [18] = assay: Induction of DNA double strand breaks in human HeLa cells after 1 hr by neutral comet assay; type: functional, cell-based
CHO-AA8 [19] = assay: Effect on cell cycle progression in Chinese hamster AA8 cells assessed as accumulation at S phase at 140 nM; type: functional, cell-based; conditions: Cricetulus griseus
V79 [20] = assay: Induction of chromosome damage in Chinese hamster V79 cells assessed as number of damaged chromosomes per 100 metaphases at 50 nM for 1 hr followed by post incubation in drug-free media for 24 hrs; type: functional, Cricetulus griseus
[21] = Induction of chromosome damage in BRCA2 deficient Chinese hamster V-C8 cells assessed as number of radials per 100 metaphases at 1 nM for 1 hr followed by post incubation in drug-free media for 24 hrs; type: functional, Cricetulus griseus
[22] = Effect on cell cycle progression in Chinese hamster homologous recombination repair XRCC3 gene deficient irs1SF cells assessed as increase in accumulation at G2/M phase at 6 nM for 1 hr followed by post incubation in drug-free media for 24 hrs relative to control; type: functional, Cricetulus griseus
[23] = Induction of DNA double strand breaks in Chinese hamster homologous recombination repair XRCC3 gene deficient irs1SF cells at 100 nM after 1 hr by comet assay; type: functional, Cricetulus griseus
V79 [24] = assay: Induction of chromosome damage in Chinese hamster V79 cells assessed as number of damaged chromosomes per 100 metaphases at 100 nM for 1 hr followed by post incubation in drug-free media for 24 hrs; type: functional, Cricetulus griseus
CHO-AA8 [25] = assay: Effect on cell cycle progression in Chinese hamster AA8 cells assessed as increase in accumulation at G2/M phase at 6 nM for 1 hr followed by post incubation in drug-free media for 6 hrs relative to control; type: functional, cell-based; conditions: Cricetulus griseus
[26] = Effect on cell cycle progression in Chinese hamster homologous recombination repair XRCC3 gene deficient irs1SF cells assessed as increase in accumulation at S phase at 6 nM for 1 hr followed by post incubation in drug-free media for 6 hrs relative to control; type: functional, Cricetulus griseus
[27] = Induction of chromosome damage in BRCA2 deficient Chinese hamster V-C8 cells assessed as number of damaged chromosomes per 100 metaphases at 100 nM for 1 hr followed by post incubation in drug-free media for 24 hrs; type: functional, Cricetulus griseus
V79 [28] = assay: Induction of chromosome damage in Chinese hamster V79 cells assessed as number of radials per 100 metaphases at 50 nM for 1 hr followed by post incubation in drug-free media for 24 hrs; type: functional, Cricetulus griseus
HeLa [29] = assay: Induction of DNA double strand breaks in human HeLa cells assessed as phosphorylated histone H2AX formation after 1 hr by immunostaining; type: functional, cell-based
[30] = Cytotoxicity in homologous recombination repair XRCC2 gene deficient Chinese hamster irs1 cells assessed as cell viability by MTT assay relative to wild type cells; type: functional, Cricetulus griseus
V79 [31] = assay: Induction of chromosome damage in Chinese hamster V79 cells assessed as number of radials per 100 metaphases at 10 nM for 1 hr followed by post incubation in drug-free media for 24 hrs; type: functional, Cricetulus griseus
[32] = Induction of chromosome damage in BRCA2 deficient Chinese hamster V-C8 cells assessed as number of radials per 100 metaphases at 2 nM for 1 hr followed by post incubation in drug-free media for 24 hrs; type: cell-based, Cricetulus griseus; conditions: v-c8, 1 h, 0.002 µM
CCRF-CEM [33] = assay: Induction of DNA double strand breaks in human CEM cells at 100 nM by alkaline comet assay; type: functional, cell-based
HeLa [34] = assay: Induction of DNA double strand breaks in human S-phase synchronized HeLa cells by alkaline comet assay; type: functional, cell-based
[35] = Induction of chromosome damage in BRCA2 deficient Chinese hamster V-C8 cells assessed as number of damaged chromosomes per 100 metaphases at 5 nM for 1 hr followed by post incubation in drug-free media for 24 hrs; type: functional, Cricetulus griseus
[36] = Cytotoxicity in homologous recombination repair XRCC3 gene deficient Chinese hamster irs1SF cells assessed as cell viability by MTT assay relative to wild type cells; type: functional, Cricetulus griseus

IC50 [13]: 6 nM
SMILES: COc1cc2c(cc1O)CCN[C@]21CS[C@@H]2c3c(OC(C)=O)c(C)c4c(c3[C@H](COC1=O)N1[C@@H]2[C@H]2c3c(cc(C)c(OC)c3O)C[C@@H]([C@@H]1O)N2C)OCO4 [TRABECTEDIN]
Activity (CHO-AA8 [1]): Active
Activity [2]: 3
Fold change [3]: 18
Activity (Lymphocyte): inactive
Activity [4]: 14
Activity (CCRF-CEM [5]): Active
Activity [6]: 42
Activity (HeLa [7]): 50%
Activity [8]: 2
Activity (HeLa [9]): 50%
Activity (V79 [10]): 24
Fold change [11]: 8
Activity (HeLa [12]): Active
Activity (CHO-AA8 [14]): Active
Activity (CHO-AA8 [15]): 140 nM
Activity (CHO-AA8 [16]): 20%
Activity (V79 [17]): 1
Activity (HeLa [18]): Dose-dependent effect
Activity (CHO-AA8 [19]): Active
Activity (V79 [20]): 50
Activity [21]: 1
Activity [22]: 35%
Activity [23]: 19%
Activity (V79 [24]): 57
Activity (CHO-AA8 [25]): inactive
Activity [26]: 65%
Activity [27]: 100
Activity (V79 [28]): 27
Activity (HeLa [29]): Active
Fold change [30]: 8
Activity (V79 [31]): 0
Activity [32]: 1
Activity (CCRF-CEM [33]): Active
Activity (HeLa [34]): Toxic
Activity [35]: 90
Fold change [36]: 23

From ChEMBL document CHEMBL1147059, “Replication and homologous recombination repair regulate DNA double-strand break formation by the antitumor alkylator ecteinascidin 743” (Proc Natl Acad Sci U S A, 2007)
